Legend:
[1] = cited from earlier work; for effect on blood cholesterol: saturated fats of chain-length 12, 14 and 16
[2] = tested on: inflammation, immunity, infection; settings: menopausal person; 11 g LA; ALA reduced from 1.8 g to 1.2 g
ovulation = test: Case study on ovulation, reproductive disorders; assay type: in vivo, human; settings: person
Source text: In a host subject cessation of ovulation (as indicated by watery pale menstrual cycles), intense ovulation-related pains and anovulatry menstruation at extremely low omega-6 fatty acids in diet were observed; olive oil being the main fat source. It is hypothesized herein that this was due to deficiency of omega-6 derived prostaglandins, which aid ovulation.

CCCCCCCC/C=C\CCCCCCCC(=O)O [oleic acid]
lowering of LDL ([1]; in vivo): 15%

CCCCCCCCCCCCCC(=O)O [myristic acid]
effect on blood cholesterol [1]: elevate blood cholesterol

CC/C=C\C/C=C\C/C=C\CCCCCCCC(=O)O [ALA, Alpha-linolenic Acid]
symptoms (spinal burning sensation, heat in the body, delayed wound healing, vaginal yeast infection) [2]: disappeared

CCCCCCCCCCCCCCCCCC(=O)O [Stearic acid]
lowering of cholesterol ([1]; in vivo): 21%

CC(C)Cc1ccc(C(C)C(=O)O)cc1 (stereo not shown) [Advil]
cessation of ovulation, ovulation-related pains, anovulatory menstruation (ovulation): same phenomenon was observed

CCCCCCCCCCCC(=O)O [lauric acid]
effect on blood cholesterol [1]: elevate blood cholesterol

CCCCCCCCCCCCCCCC(=O)O [palmitic acid]
effect on blood cholesterol [1]: elevate blood cholesterol

— US10292958B2, “Lipid-containing compositions and methods of use thereof” (ASHA NUTRITION SCIENCES, INC., priority 2008, dated 2019)
